Data from patent publication US9115101B2 (Genentech, Inc., priority 2012, dated 2015).

biological target: T1, RORc ligand binding domain (Homo sapiens, UniProt P51449); test: In Vitro RORc Ligand Binding Assay (25-[3H]hydroxycholesterol radioligand filtration); settings: In Vitro RORc Ligand Binding Assay; Table 4; read-out: RORc IC50
T1 construct: host or cells: E. coli
T1 sequence (P51449 269-508 limits assumed): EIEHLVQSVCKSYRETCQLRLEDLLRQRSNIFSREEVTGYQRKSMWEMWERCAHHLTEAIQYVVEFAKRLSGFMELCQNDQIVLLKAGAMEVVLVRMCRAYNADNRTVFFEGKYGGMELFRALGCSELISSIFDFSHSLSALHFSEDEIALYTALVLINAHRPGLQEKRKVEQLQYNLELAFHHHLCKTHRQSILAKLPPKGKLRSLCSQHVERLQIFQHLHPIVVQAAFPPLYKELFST

IC50 [nM]	SMILES
3040	C[C@H]1CCC(c2ccccc2)S(=O)(=O)N1Cc1ccc(C(=O)N2CC3(CCOC3)C2)cc1 (stereo partly drawn) [Example 372, [4-((3S)-Methyl-1,1-dioxo-6-phenyl-[1,2]thiazinan-2-ylmethyl)-phenyl]-(6-oxa-2-aza-spiro[3.4]oct-2-yl)-methanone]
34	C[C@H]1CCC(c2ccccc2)S(=O)(=O)N1Cc1ccc(N2CCC(S(=O)(=O)N(C)C)CC2)cc1F (single isomer, unassigned) [Example 109]
321	C[C@@H](O)C(=O)N1CCN(c2ccc(CN3CCCCC(c4ccccc4)S3(=O)=O)cc2)CC1 (single isomer, unassigned) [Example 315, 1-{4-[4-(1,1-Dioxo-7-phenyl-[1,2]thiazepan-2-ylmethyl)-phenyl]-piperazin-1-yl}-2-hydroxy-propan-1-one]
7	CC(=O)N1CCN(c2ccc(CN3C4CCCC4CC(c4ccccc4)S3(=O)=O)c(F)c2)CC1 (single isomer, unassigned) [Example 248, 1-(4-(4-((2,2-dioxido-3-phenylhexahydro-cyclopenta[c][1,2]thiazin-1(3H)-yl)methyl)-3-fluorophenyl)piper-azin-1-yl)ethanone]
47	CC(=O)N1CCN(c2ccc(CN3[C@@H](C)CCC(c4ccc(F)cc4)S3(=O)=O)c(F)c2)CC1 (single isomer, unassigned) [Example 122]
3080	COc1cc(CN2[C@@H](C)CCC(c3ccccc3)S2(=O)=O)ccc1N1CCN(C(C)=O)CC1 (single isomer, unassigned) [Example 161]
641	C[C@H]1CCC(c2ccccc2)S(=O)(=O)N1Cc1ccc(C(=O)N2CCOC3(CCOC3)C2)cc1 (stereo partly drawn) [Example 361, (2,6-Dioxa-9-aza-spiro[4.5]dec-9-yl)-[4-((3S)-methyl-1,1-dioxo-6-phenyl-[1,2]thiaznan-2-ylmethyl)-phenyl]-methanone]
138	CNC(=O)[C@@H]1CN(c2ccc(CN3[C@@H](C)CCC(c4ccccc4)S3(=O)=O)c(F)c2)CCN1C(C)=O (stereo partly drawn) [Example 380, (S)-1-Acetyl-4-[3-fluoro-4-((3S)-methyl-1,1-dioxo-6-phenyl-[1,2]thiazinan-2-ylmethyl)-phenyl]-piperazine-2-carboxylic acid methylamide]
32	CC(=O)N1CCN(c2ccc(CN3[C@@H](C)COCC(c4ccccc4)S3(=O)=O)c(F)c2)CC1 (single isomer, unassigned) [Example 25]
135	C[C@H]1CCC(c2ccccc2)S(=O)(=O)N1Cc1ccc(OC2CCS(=O)(=O)CC2)cc1F (single isomer, unassigned) [Example 38]
3220	C[C@H]1CCC(c2ccccc2)S(=O)(=O)N1Cc1ccc(C(=O)NC2CCS(=O)(=O)C2)cc1 (stereo partly drawn) [Example 389, N-(1,1-Dioxo-tetrahydro-6-thiophen-3-yl)-4-((3S)-methyl-1,1-dioxo-6-phenyl-[1,2]thiazinan-2-ylmethyl)-benzamide]
108	C[C@H]1CCC(c2ccccc2)S(=O)(=O)N1Cc1ccc(C(=O)N2CCCC2CCNS(C)(=O)=O)cc1 (stereo partly drawn) [Example 357, N-(2-{1-[4-((3S)-Methyl-1,1-dioxo-6-phenyl-[1,2]thiazinan-2-ylmethyl)-benzoyl]-pyrrolidin-2-yl}-ethyl)-methanesulfonamide]
28	O=S1(=O)C(c2ccccc2)CCCCN1Cc1ccc(N2CCC(n3cnnc3)CC2)cc1 (single isomer, unassigned) [Example 336, 7-Phenyl-2-[4-(4-[1,2,4]triazol-4-yl-piperidin-1-yl)-benzyl]-[1,2]thiazepane 1,1-dioxide]
1100	C[C@H]1CCC(c2ccccc2)S(=O)(=O)N1Cc1ccc(OC2CCN(S(C)(=O)=O)CC2)nc1 (single isomer, unassigned) [Example 35]
61	C[C@H]1CCC(c2ccccc2)S(=O)(=O)N1Cc1ccc(N2CCN(C(=O)C3CC3)CC2)cc1 (single isomer, unassigned) [Example 61]
1580	CC(=O)N1CCN(c2ccc(CN3[C@@H](C)CCC(c4ccccc4)S3(=O)=O)c(Cl)c2)CC1 (stereo partly drawn) [Example 180, 1-{4-[3-Chloro-4-((3S)-3-methyl-1,1-dioxo-6-phenyl-[1,2]thiazinan-2-ylmethyl)-phenyl]-piperazin-1-yl}-ethanone]
227	CC(=O)N1CCN(c2ccc(CN3CCCCC(c4ccccc4)S3(=O)=O)cc2)CC1 (single isomer, unassigned) [Example 307, 1-{4-[4-(1,1-Dioxo-7-phenyl-[1,2]thiazepan-2-ylmethyl)-phenyl]-piperazin-1-yl}-ethanone]
4	CC[C@H]1CCC(c2ccccc2)S(=O)(=O)N1Cc1ccc(NC2CCN(S(C)(=O)=O)CC2)cc1F (single isomer, unassigned) [Example 240]
32	CC(=O)N1CCN(c2ccc(CN3CCCCC(c4ccccc4)S3(=O)=O)c(F)c2)CC1 (single isomer, unassigned) [Example 16, 1-{4-[4-(1,1-Dioxo-7-phenyl-[1,2]thiazepan-2-ylmethyl)-3-fluoro-phenyl]-piperazin-1-yl}-ethanone]
466	C[C@H]1CCC(c2ccccc2)S(=O)(=O)N1Cc1ccc(N2CCN(C(=O)CCC#N)CC2)cc1F (single isomer, unassigned) [Example 73]
21	C[C@H]1CCC(c2ccccc2)S(=O)(=O)N1Cc1ccc(N2CCC(c3n[nH]c(=O)o3)CC2)cc1F (single isomer, unassigned) [Example 144]
188	CC(=O)N1CCN(c2ccc(CN3[C@H](C)COCC(c4ccccc4)S3(=O)=O)c(F)c2)CC1 (single isomer, unassigned) [Example 27]
12	C[C@H]1CCC(c2ccccc2)S(=O)(=O)N1Cc1ccc(N2CCC(c3cnn[nH]3)CC2)cc1F (single isomer, unassigned) [Example 255]
147	COc1ccc(C2CC[C@H](C)N(Cc3ccc(N4CCN(C(C)=O)CC4)cc3F)S2(=O)=O)cc1 (single isomer, unassigned) [Example 177]
102	C[C@H]1CCC(c2ccccc2)S(=O)(=O)N1Cc1ccc(N2CCC(C(=O)O)CC2)cc1F (stereo partly drawn) [Example 120, 1-[3-Fluoro-4-((3S)-3-methyl-1,1-dioxo-6-phenyl-[1,2]thiazinan-2-ylmethyl)-phenyl]-piperidine-4-carboxylic acid]
49	C=C1CCC(c2ccccc2)S(=O)(=O)N(Cc2ccc(N3CCN(C(C)=O)CC3)cc2F)C1 (centres unmarked) [Example 348, 1-{4-[3-Fluoro-4-(4-methylene-1,1-dioxo-7-phenyl-[1,2]thiazepan-2-ylmethyl)-phenyl]-piperazin-1-yl}-ethanone]

same assay, conditions: read-out: RORc IC50

IC50 [nM]	SMILES
2790	C[C@H]1CCC(c2ccccc2)S(=O)(=O)N1Cc1ccc(N2CCN3C(=O)CNC(=O)[C@@H]3C2)cc1F (stereo partly drawn) [Example 401, (S)-8-[3-Fluoro-4-((3S)-methyl-1,1-dioxo-6-phenyl-[1,2]thiazinan-2-ylmethyl)-phenyl]-hexahydro-pyrazino[1,2-a]pyrazine-1,4-dione]
86	C[C@H]1CCC(c2ccccc2)S(=O)(=O)N1Cc1ccc(OCC2CCOCC2)cc1 (stereo partly drawn) [Example 436, (3S)-Methyl-6-phenyl-2-[4-(tetrahydro-pyran-4-ylmethoxy)-benzyl]-[1,2]thiazinane 1,1-dioxide]
559	C[C@H]1CCC(c2ccccc2)S(=O)(=O)N1Cc1ccc(OCC2CCOC2)cc1 (stereo partly drawn) [Example 430, (3S)-Methyl-6-phenyl-2-[4-(tetrahydro-furan-3-ylmethoxy)-benzyl]-[1,2]thiazinane 1,1-dioxide]
